IC50 data for 5 compounds are collected here from BindingDB's records for PubMed 37738648 (Astrazeneca, 2023).

Experiment [1] concerns the target T1, Tyrosine-protein kinase JAK3 (Homo sapiens, UniProt P52333).
T1 sequence (P52333 whole entry): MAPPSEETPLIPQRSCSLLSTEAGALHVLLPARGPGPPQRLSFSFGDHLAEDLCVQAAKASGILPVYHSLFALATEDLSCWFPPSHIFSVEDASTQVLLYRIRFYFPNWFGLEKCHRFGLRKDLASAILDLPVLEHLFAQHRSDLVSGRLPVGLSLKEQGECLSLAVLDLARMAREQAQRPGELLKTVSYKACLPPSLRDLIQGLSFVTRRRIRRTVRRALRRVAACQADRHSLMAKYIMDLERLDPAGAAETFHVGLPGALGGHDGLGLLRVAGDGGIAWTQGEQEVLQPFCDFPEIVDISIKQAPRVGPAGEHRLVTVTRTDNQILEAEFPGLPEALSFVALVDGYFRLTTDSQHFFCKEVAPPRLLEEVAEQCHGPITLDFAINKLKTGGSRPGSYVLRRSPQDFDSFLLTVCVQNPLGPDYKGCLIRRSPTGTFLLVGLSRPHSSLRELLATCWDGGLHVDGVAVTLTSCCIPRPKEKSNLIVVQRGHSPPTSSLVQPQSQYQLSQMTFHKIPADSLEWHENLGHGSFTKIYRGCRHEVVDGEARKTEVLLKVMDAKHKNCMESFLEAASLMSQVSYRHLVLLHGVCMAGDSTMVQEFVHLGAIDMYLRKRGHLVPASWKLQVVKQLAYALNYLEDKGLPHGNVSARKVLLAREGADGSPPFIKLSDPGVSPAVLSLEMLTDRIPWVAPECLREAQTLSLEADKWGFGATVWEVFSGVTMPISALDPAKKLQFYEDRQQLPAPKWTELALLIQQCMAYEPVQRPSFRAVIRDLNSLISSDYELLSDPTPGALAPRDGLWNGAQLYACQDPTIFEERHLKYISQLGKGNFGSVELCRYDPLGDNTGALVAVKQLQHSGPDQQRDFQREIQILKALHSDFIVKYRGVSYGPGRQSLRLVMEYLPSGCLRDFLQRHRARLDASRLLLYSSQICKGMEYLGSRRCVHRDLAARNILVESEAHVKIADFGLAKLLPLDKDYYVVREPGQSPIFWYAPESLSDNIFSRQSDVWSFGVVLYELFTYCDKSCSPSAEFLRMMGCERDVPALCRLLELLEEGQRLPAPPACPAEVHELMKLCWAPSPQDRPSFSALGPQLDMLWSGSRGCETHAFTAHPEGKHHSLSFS
Put plainly: Inhibition of N-terminal GST-tagged human recombinant JAK3 (781 to 1124 residues) expressed in insect cells using 5FAM-GEEPLYWSFPAKKK-NH2 peptide as substrate incubated for 10 mins measured after 90 mins in presence of ATP by caliper mobility shift assay.

The target in experiment [2] is Tyrosine-protein kinase JAK1 (Homo sapiens, UniProt P23458). Put plainly: Inhibition of N-terminal GST-tagged human recombinant JAK1 (866 to 1154 residues) expressed in insect cells using FITC-C6-KKHTDDGYMPMSPGVA-NH peptide as substrate incubated for 10 mins measured after 90 mins in presence of ATP by caliper mobility shift assay.
Tyrosine-protein kinase JAK1, sequence (P23458 whole entry, the tested form may be a part): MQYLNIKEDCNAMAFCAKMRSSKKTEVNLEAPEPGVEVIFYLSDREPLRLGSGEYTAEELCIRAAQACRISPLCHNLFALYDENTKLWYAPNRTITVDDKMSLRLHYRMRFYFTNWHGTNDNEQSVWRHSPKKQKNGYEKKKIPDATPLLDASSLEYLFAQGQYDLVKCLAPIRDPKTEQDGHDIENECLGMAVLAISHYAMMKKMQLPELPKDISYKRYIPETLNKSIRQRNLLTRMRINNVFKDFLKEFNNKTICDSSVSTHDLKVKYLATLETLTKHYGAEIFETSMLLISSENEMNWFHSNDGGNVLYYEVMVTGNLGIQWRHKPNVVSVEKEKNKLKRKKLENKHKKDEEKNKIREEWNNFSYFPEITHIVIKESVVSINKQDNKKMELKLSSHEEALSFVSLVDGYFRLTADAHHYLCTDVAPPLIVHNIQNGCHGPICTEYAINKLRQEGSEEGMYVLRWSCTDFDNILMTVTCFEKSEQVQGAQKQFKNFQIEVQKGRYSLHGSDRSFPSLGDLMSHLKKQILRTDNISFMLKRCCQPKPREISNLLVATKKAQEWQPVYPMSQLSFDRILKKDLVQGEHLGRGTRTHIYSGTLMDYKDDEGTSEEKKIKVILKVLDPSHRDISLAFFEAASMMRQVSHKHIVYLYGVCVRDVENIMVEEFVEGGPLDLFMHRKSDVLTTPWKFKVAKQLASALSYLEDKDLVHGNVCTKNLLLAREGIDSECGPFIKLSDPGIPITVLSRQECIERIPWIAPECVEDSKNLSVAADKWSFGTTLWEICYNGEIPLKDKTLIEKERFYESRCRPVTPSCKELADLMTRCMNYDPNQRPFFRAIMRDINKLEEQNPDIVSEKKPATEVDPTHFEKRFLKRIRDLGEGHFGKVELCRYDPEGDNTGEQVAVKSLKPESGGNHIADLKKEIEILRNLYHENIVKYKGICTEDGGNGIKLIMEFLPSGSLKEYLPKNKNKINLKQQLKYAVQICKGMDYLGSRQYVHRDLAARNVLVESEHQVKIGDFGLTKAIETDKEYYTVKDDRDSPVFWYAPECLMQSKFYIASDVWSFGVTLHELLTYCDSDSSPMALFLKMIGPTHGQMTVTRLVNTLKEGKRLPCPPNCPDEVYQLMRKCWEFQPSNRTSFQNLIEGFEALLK

For orientation: IC50 means the concentration that gives 50% inhibition.

Some results are limits rather than exact numbers.

In the case of `Cc1cnc(Nc2cccc(S(C)(=O)=O)c2F)nc1-c1c[nH]c2c(NC(=O)[C@@H](C)N3CCN(C)CC3)cccc12` [US10961228, Example 2], the half-maximal inhibitory concentration (IC50) in experiment [1] was more than 30 µM. On to `CC[C@H](C(=O)Nc1cccc2c(-c3nc(Nc4cccc(S(C)(=O)=O)c4F)ncc3C)c[nH]c12)N1CCN(C)CC1` [US10961228, Example 14], for which the values for the IC50 in experiment [2] and in experiment [1] were less than 0.003 µM and more than 30 µM, respectively.

For `COC[C@H](C(=O)Nc1cccc2c(-c3nc(Nc4cccc(S(C)(=O)=O)c4F)ncc3C)c[nH]c12)N1CCN(C)CC1` [US10961228, Example 16], the results for the IC50 in experiment [2] and in experiment [1] were less than 0.003 µM and more than 30 µM, respectively.

In the case of `CC[C@H](C(=O)Nc1cccc2c(-c3nc(Nc4cccc(S(C)(=O)=O)c4F)ncc3F)c[nH]c12)N1CCN(C)CC1` [US10961228, Example 38], the IC50 in experiment [1] is more than 30 µM. Consider `COC[C@H](C(=O)Nc1cccc2c(-c3nc(Nc4cccc(S(C)(=O)=O)c4F)ncc3F)c[nH]c12)N1CCN(C)CC1` [US10961228, Example 35], for which the results for the half-inhibitory concentration (IC50) in experiment [2] and in experiment [1] were less than 0.003 µM and more than 30 µM, respectively.
